As a reminder, the IC50 is the midpoint of a concentration-inhibition curve.

Experimental findings from patent US10364247B2, “Preparation and use of novel protein kinase inhibitors” (Ruijin Hospital Affiliated to Shanghai Jiao Tong University …, priority 2015, dated 2019) are described below.

The target in assay [1] is FLT3 (Homo sapiens, UniProt P36888). The assay is described as follows: KINOMEscan competition binding. The method, then:
KINOMEscan™ is based on a competition binding assay that quantitatively measures the ability of a compound to compete with an immobilized, active-site directed ligand (Fabian et al. (2005) Nat. Biotechnol. 23, 329; Karaman et al. (2008) Nat. Biotechnol. 26, 127). The compound was screened at 10 μM, and results for primary screen binding interactions are reported as ‘% Ctrl’, where lower numbers indicate stronger hits. The results for kinases targets with a % Ctrl less than 30 can be seen in Table 2.
FLT3 is a receptor tyrosine kinase; its activating mutations are found in 30% human acute myeloid leukemia (AML)^5.

Assay [2] deals with T1, BaF3-BCR/ABL (Homo sapiens, UniProt P00519).
T1 construct: fused on or other part: P11274 (Breakpoint cluster region protein)
The assay can be described thus: Antiproliferative activity, kinase-dependent Ba/F3 cells (MTT/MTS). It counts as cell-based, murine. Particulars: 48 hours, cell viability, read-out: BCR/ABL IC50. A digest of the protocol: (§1)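 Murine Ba/F3 cells transformed with BCR/ABL (p210) or BCR/ABL-T315I, grown in RPMI/10% FCS without IL3, were seeded at 20,000 cells/well. Viability was read by MTT/MTS. IC50 is the concentration reducing viability to 50% of DMSO vehicle control.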

For assay [3], the target named is T2, BaF3-BCR/ABL-T315I (Homo sapiens, UniProt P00519, T315I, cells depend on it).
T2 construct: fused on or other part: P11274 (Breakpoint cluster region protein)
Described as above. It counts as cell-based, murine. Particulars: 48 hours, cell viability, read-out: BCR/ABL T315I IC50. A digest of the protocol: as §1

Assay [4] deals with T3, BaF3-EML4-ALK (Homo sapiens, UniProt Q9UM73).
T3 construct: fused on or other part: Q9HC35 (Echinoderm microtubule-associated protein-like 4)
Described as above. It counts as cell-based, murine. The conditions noted are these: 48 hours, cell viability, read-out: EML4-ALK IC50. The procedure, abridged: (§2)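 Murine Ba/F3 cells transformed with the indicated TEL- or EML4-fusion kinases, seeded at 20,000 cells/well in RPMI/10% FCS. Viability by MTT/MTS; IC50 as concentration reducing viability to 50% of DMSO vehicle control.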

Assay [5] addresses T4, BaF3-TEL-HCK (Homo sapiens, UniProt P08631).
T4 construct: fused on or other part: P41212 (Transcription factor ETV6)
Described as above. It counts as cell-based, murine. Particulars: 48 hours, cell viability, read-out: Tel-HCK IC50. A digest of the protocol: as §2

In assay [6] the target is T5, BaF3-TEL-INSR (Homo sapiens, UniProt P06213).
T5 construct: fused on or other part: P41212 (Transcription factor ETV6)
The assay is described as above. It counts as cell-based, murine. Particulars: 48 hours, cell viability, read-out: Tel-INSR IC50. The procedure, abridged:
as §2

Assay [7] has as its target T6, BaF3-TEL-LYN (Homo sapiens, UniProt P07948).
T6 construct: fused on or other part: P41212 (Transcription factor ETV6)
Described as above. It counts as cell-based, murine. Particulars: 48 hours, cell viability, read-out: tel-LYN IC50. A digest of the protocol: as §2

Assay [8] has as its target T7, BaF3-TEL-TIE1 (Homo sapiens, UniProt P35590).
T7 construct: fused on or other part: P41212 (Transcription factor ETV6)
Described as above. It counts as cell-based, murine. Particulars: 48 hours, cell viability, read-out: tel-TIE1 IC50. A digest of the protocol:
as §2

The subject of assay [9] is BaF3-NRASD12. The assay is described as follows: Oncogenic RAS dependent cell proliferation (CellTiter Glo). It counts as cell-based, murine. The conditions noted are these: Mus musculus, BaF3-NRASD12 cells, 48 hours, read-out: NRas-BaF3 IC50. The procedure, abridged:
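BaF/3 cells transformed with NRASD12 or KRASD12, plus parental BaF/3, seeded at 5000 cells/well. Viability read by CellTiter-Glo luminescence, reagent diluted 1:4 in PBS, with vehicle and cell-free background controls.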
Background: ATP-based viability assays read luminescence as a measure of living cells.

Assay [10] deals with KU812 cells. The assay is described as follows: Human leukemia cell proliferation (CellTiter Glo). It counts as cell-based. Particulars: compared to Imatinib and Ponatinib; FIG. 1. The method, then:
Comparison of 50% inhibition concentration (IC50) of IA-9, imatinib and Ponatinib in KU812 leukemia cells.
IA-9 is a strong kinase inhibitor among the compounds of the invention. The activity of IA-9 to inhibit human leukemia cell proliferation was tested using CellTiter Glo Assay (Promega).

Assay [11] has as its system NCI-H1975 and HCC827 cell lines. The assay is described as follows: Lung adenocarcinoma cell proliferation. It counts as cell-based. Particulars: FIG. 4. The method, then:
The ability of IA-9 to treat lung adenocarcinoma was tested using the NCI-H1975 and HCC827 cell lines. Both cell lines harbor at least EGFR and Ras mutations and are multi-drug resistant. Cell proliferation was tested using methods described herein.

In assay [12] the test system is Ba/F3 cells expressing FLT3-ITD oncoprotein (ITD). The assay can be described thus: Proliferation of FLT3-ITD expressing Ba/F3 cells. It counts as cell-based, murine. The protocol:
(§3) A. Dose response curve of IA-9 in treating ITD cells is presented. ITD cells in the presence (ITD+) or absence of IL-3 (ITD−) were treated with 10 μM and 3-fold dilution series of IA-9. B. Dose response curve of IA-9 in treating MV-4-11 cells is shown. […].

Assay [13] relates to MV-4-11. The assay is described as follows: Proliferation of FLT3-ITD-driven human AML cells. It counts as cell-based. Particulars: compared with Dasatinib; FIG. 5B. The protocol: as §3

Chain of FLT3 (P36888 27-993): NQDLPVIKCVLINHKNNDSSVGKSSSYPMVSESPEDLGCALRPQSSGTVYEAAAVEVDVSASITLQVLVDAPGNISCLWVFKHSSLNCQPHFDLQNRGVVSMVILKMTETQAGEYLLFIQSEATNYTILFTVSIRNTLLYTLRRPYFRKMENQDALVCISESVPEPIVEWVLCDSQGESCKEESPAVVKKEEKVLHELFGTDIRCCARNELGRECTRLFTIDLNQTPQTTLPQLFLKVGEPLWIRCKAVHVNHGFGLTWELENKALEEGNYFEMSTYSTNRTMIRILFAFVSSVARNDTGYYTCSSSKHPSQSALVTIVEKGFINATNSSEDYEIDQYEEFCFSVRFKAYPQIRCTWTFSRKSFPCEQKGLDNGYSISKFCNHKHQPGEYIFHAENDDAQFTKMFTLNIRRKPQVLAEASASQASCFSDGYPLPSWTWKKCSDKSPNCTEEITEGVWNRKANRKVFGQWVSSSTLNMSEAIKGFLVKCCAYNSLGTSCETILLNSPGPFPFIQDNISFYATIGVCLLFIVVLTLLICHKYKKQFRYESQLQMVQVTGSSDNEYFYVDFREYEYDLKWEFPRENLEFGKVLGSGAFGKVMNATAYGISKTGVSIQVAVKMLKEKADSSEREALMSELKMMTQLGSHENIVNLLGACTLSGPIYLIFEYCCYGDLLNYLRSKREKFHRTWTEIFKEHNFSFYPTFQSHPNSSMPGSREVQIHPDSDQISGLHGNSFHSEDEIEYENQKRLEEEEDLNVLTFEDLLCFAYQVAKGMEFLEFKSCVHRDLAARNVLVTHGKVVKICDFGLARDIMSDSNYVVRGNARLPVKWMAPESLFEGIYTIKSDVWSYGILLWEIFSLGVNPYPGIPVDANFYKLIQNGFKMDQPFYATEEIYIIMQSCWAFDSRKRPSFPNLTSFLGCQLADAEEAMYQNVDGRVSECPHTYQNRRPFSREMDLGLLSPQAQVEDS
T4 sequence (P08631 whole entry, change not shown, the tested form may be a part): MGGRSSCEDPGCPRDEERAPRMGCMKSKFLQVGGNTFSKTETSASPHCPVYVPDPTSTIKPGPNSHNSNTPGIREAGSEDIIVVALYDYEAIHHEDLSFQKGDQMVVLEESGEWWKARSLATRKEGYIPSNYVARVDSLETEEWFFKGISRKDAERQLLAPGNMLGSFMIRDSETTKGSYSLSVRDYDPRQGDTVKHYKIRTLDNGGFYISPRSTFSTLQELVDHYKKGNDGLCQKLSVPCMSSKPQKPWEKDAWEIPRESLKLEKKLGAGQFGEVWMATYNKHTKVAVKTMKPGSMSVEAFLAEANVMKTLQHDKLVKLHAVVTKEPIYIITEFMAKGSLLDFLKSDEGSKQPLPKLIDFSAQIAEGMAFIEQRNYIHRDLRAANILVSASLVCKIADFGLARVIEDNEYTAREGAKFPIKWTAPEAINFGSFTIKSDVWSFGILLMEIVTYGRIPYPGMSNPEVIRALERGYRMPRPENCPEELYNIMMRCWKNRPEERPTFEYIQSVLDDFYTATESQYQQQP
T5 sequence (P06213 whole entry, stated change not applied, the tested form may be a part): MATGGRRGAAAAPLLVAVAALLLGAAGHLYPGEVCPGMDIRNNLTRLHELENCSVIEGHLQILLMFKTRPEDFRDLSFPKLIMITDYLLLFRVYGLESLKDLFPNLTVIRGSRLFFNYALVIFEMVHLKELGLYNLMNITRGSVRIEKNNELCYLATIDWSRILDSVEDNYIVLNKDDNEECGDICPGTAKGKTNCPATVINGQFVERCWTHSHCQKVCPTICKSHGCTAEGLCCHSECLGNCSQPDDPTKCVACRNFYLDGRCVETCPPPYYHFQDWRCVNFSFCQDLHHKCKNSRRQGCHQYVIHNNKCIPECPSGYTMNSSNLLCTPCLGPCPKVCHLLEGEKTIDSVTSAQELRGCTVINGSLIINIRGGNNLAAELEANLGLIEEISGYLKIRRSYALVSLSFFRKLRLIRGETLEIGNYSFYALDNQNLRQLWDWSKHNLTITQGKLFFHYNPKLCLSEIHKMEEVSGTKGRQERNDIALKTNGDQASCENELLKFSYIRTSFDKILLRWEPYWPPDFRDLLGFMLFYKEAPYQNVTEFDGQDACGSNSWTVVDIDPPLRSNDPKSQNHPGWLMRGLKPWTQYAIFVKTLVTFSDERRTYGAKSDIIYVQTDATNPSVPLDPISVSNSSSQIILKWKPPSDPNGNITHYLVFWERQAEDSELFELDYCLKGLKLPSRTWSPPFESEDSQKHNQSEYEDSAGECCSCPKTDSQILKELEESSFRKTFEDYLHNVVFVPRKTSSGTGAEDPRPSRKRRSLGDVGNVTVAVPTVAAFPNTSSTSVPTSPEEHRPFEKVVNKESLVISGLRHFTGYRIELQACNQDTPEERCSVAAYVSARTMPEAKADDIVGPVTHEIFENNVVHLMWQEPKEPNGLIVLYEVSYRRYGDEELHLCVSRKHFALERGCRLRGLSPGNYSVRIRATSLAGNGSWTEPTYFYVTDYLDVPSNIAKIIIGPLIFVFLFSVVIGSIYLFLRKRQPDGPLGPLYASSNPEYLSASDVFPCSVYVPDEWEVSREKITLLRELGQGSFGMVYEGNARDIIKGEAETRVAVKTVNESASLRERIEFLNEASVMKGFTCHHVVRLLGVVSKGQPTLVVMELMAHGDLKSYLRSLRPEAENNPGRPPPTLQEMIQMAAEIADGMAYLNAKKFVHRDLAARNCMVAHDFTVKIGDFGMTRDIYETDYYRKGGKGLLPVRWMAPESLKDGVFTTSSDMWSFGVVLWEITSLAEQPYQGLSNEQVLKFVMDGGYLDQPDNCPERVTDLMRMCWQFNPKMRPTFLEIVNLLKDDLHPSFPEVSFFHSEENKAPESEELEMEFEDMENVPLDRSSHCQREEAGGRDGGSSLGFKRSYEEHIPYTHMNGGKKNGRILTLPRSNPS
T3 sequence (Q9UM73 whole entry, change not shown, the tested form may be a part): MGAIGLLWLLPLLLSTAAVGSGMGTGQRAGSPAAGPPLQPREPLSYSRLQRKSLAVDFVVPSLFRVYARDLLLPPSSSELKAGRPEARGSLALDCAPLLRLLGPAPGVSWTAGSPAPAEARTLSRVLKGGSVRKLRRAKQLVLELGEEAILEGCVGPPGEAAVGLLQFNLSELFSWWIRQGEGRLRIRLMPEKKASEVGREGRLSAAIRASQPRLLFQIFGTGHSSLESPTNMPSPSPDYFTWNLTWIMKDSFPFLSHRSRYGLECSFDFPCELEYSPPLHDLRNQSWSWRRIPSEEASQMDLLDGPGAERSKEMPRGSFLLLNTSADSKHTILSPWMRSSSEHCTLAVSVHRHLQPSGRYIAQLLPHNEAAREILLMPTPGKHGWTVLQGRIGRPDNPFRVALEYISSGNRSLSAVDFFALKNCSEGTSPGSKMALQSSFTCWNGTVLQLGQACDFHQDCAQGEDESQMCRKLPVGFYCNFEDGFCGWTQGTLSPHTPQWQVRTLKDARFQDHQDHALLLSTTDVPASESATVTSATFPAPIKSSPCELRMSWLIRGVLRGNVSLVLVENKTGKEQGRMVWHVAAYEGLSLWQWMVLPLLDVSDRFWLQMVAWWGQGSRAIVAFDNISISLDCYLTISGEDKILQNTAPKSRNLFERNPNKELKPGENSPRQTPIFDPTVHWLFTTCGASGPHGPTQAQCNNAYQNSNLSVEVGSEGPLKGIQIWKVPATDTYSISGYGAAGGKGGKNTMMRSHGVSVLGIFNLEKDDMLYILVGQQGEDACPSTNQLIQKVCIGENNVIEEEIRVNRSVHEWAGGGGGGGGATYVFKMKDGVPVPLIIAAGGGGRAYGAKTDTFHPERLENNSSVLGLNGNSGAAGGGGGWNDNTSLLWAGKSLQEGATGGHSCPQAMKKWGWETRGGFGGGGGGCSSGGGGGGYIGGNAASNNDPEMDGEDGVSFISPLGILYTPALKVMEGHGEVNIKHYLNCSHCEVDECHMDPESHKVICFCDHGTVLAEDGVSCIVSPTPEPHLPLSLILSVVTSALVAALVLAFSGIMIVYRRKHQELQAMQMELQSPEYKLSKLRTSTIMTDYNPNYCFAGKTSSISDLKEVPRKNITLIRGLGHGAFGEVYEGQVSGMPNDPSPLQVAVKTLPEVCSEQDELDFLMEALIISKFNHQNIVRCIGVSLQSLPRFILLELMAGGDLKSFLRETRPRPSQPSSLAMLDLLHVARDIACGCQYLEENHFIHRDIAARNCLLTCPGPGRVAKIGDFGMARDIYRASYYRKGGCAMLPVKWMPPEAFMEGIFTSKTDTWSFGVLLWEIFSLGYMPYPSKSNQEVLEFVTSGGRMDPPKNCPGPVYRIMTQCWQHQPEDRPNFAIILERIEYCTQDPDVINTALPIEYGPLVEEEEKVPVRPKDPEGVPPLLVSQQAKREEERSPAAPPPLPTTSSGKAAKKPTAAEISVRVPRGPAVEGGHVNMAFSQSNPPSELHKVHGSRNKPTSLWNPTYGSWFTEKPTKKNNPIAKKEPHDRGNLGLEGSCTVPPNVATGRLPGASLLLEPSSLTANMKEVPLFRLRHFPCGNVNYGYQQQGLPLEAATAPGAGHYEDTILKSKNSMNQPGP
T6 sequence (P07948 whole entry, change not shown, the tested form may be a part): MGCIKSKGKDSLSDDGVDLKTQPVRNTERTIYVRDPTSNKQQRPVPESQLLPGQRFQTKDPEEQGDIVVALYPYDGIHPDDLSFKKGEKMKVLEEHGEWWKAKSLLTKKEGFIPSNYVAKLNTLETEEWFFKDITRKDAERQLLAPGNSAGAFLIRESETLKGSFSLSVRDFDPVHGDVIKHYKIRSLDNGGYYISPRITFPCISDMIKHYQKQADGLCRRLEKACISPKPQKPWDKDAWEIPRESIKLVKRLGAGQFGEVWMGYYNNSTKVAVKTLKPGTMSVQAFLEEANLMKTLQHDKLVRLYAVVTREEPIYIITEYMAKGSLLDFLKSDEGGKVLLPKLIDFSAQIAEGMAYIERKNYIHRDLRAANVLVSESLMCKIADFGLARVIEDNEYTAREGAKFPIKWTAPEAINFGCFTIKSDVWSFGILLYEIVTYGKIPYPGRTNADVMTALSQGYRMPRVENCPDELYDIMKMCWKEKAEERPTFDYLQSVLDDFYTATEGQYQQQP

For the compound `Cc1ccc(Nc2ncc3c(n2)N(C)CN(c2cc(NC(=O)c4cccc(C(F)(F)F)c4)ccc2C)C3)cn1` [IA-9, N-(4-methyl-3-(1-methyl-7-((6-methylpyridin-3-yl)amino)-1,4-dihydropyrimido[4,5-d]pyrimidin-3(2H)-yl)phenyl)-3-(trifluoromethyl)benzamide], the remaining binding at 10 µM in assay [1] (FLT3, 10 μM, read-out: Percent Control) was found to be 0.2%. Also, the “binding to FLT3 kinase (in words)” value in assay [1] (KINOMEscan data) is “bind(s) FLT3 kinase strongly”. Further, the GI50 was 5 nM in assay [2]; 651 nM in assay [3]; 1470 nM in [4]; 639 nM in assay [5]; 869 nM in [6]; 225 nM in [7]. In addition, in assay [8], the GI50 worked out at 519 nM. In assay [9], the concentration for half-maximal inhibition (IC50) was 380 nM. Further, in assay [10], the “inhibition of proliferation of KU812 cells” value is “stronger ability to inhibit proliferation of KU812 cells”. The “reduction of proliferation of lung adenocarcinoma cells” value in [11] is reported as “reduce the proliferation of lung adenocarcinoma cells”. Moreover, in [12] (FLT3-ITD transformed cells, IL-3 rescue), the “potential therapeutic window (ITD cells with vs without IL-3)” value stood at 80 fold. Further, in assay [12] (absence of IL-3, FIG. 5A), the “inhibition of proliferation/viability of ITD cells” value is given as “effectively inhibits the proliferation/viability of ITD cells”. In addition, the “proliferation/survival of ITD cells on addition of IL-3” value in assay [12] (presence of IL-3, FIG. 5A) was “largely rescues the proliferation/survival of the ITD cells”. Besides, in assay [13], the “suppression of growth of MV-4-11” value is “much more effectively than did Dasatinib”.
